Data reported in PMC10914731, “Homo-BacPROTAC-induced degradation of ClpC1 as a strategy against drug-resistant mycobacteria” (Nature Communications, 2024).
Values joined by “and” are separate entries in the source; they are usually repeats but may differ in a detail not shown here. Equal values may be shown once. Read-outs that look alike come from different tables or passages of the source. *1 amine or outer side, *2 acyl side, *3 side chain or, on linkers, in order; H or OH if unused. Where a SMILES comes first, the peptide text is derived from it. Bridges are numbered along the chain shown (N, C = ends). Roman numbers before positions name the chains, in order. [ ]: non-standard residue; d: D form. X9 = C=CC(C)(C)n1cc(C[C@@H](C(=O)[*:2])N(C)[*:1])c2ccccc21; X10 = CN([C@@H](Cc1cn(CC=[*:3])c2ccccc12)C(=O)[*:2])[*:1]; Ala(3R-Me,3-isobutenyl) = CC(C)=C[C@@H](C)[C@H](N)C(=O)O; NMeLeu(5-OH,4R) = CN[C@@H](C[C@@H](C)CO)C(=O)O; Phe(βR-OMe) = CO[C@H](c1ccccc1)[C@H](N)C(=O)O; NMeL = CN[C@@H](CC(C)C)C(=O)O

Assays:
[1] = type: in vitro ADME, Rat
Description: (§1) Cryopreserved hepatocytes are incubated in an appropriate buffer system containing 50% species serum. Following an acclimation period (15–30 min) in an incubator (37 °C, 5−10% CO2, 85–95% humidity) the test compound is added to the hepatocyte suspension (pH 7.4, typical cell density of about 1 million cells/mL; final concentration of test compound is 1 µM, final DMSO concentration <0.05% v/v). The cells are incubated for up to 6 h and samples are taken at 6 different time points. Samples are then quenched with acetonitrile and pelleted by centrifugation. The remaining amount of parent compound in the supernatants is then analysed by HPLC-MS/MS. Clearance is calculated from compound half-lives using the well-stirred liver model and is converted to clearance stated as % of the liver blood flow (% Qh).

[2] = target: ClpC1 NTD protein (M. tuberculosis) (Mycobacterium tuberculosis, UniProt P9WPC9); assay: biochemical; type: binding
Caco-2 monolayers = assay: in vitro
Description: (§2) Supplementary Table 1. Structure-Activity Relationships part 1 (SPR, Caco-2) […]
(§3) SPR. Mean values ± standard deviation. Footnotes indicate the number of measurements performed for the respective compound: a) n = […]
(§4) [5] Permeability across Caco-2 monolayers in P(A−B): apical to basolateral and P(B−A): basolateral to apical direction (values reported in 10-
(§5) 6 cm s-1); efflux ratio = P(B−A)/P(A−B); Int. perm: mean value of P(A−B) and P(B−A). […] Influence of Trp-Nα methylation on P(A-B) and efflux
(§6) ratio. Bold: positive influence.

[3] = Hepatocyte stability, mice; type: in vitro ADME
Description: as §1

[4] = type: in vitro ADME, Human
Description: as §1

[5] = target: ClpC1-NTD substrate, M. tuberculosis ClpC1P1P2 (Mycobacterium tuberculosis, UniProt P9WPC9); assay: biochemical; type: biochemical; conditions: Mtb
[6] = target: His6-tagged ClpC1-NTD substrate, M. smegmatis ClpC1P1P2 (UniProt A0R574+P9WPC9); assay: biochemical; type: biochemical; conditions: Msm
in vitro = conditions: human; for Papp A→B: apical to basolateral; for Papp B→A: basolateral to apical
Description: as §2, §3, §4, §5, §6

[7] = read-out: ClpC1-NTD KD Mean ± SD
[8] = mean of the measurements, read-out: DC50, Mean
[9] = Measurement 1-6, read-out: DC50, single measurements
[10] = SPR (Supplementary Table 1), read-out: KD ClpC1-NTD Mean ± SD
[11] = SPR, single independent measurements, read-out: KD ClpC1-NTD
[12] = mean value of P(A−B) and P(B−A)
[13] = mean of the measurements, read-out: 1-Dmax, Mean

| Compound | Hepatocyte Rat [1] [%Qh] | Hepatocyte Stability Rat QH [1] [%] | koff ClpC1-NTD [2] | Kd [2, 7] [µM] | Kd ([2]; read-out: KD ClpC1-NTD) | Caco-2 Int. Perm (Caco-2 monolayers; Caco-2) | Caco-2 permeability P (B-A) (Caco-2 monolayers; Caco-2) | Permeability Correlation P (A-B) (Caco-2 monolayers; Caco-2) | Hepatocyte Stability Mouse QH [3] [%] | Hepatocyte Stability Human QH [4] [%] | DC50 [5, 8] [µM] | DC50 [6, 9] | DC50 [6, 8] [µM] | Kd [2, 10] [µM] | Kd [2, 11] | Caco-2 Int. Perm (Caco-2 monolayers; [12]) | Hepatocyte Mice ([3]; clearance in hepatocytes) [%Qh] | further results |
| --- | --- | --- | --- | --- | --- | --- | --- | --- | --- | --- | --- | --- | --- | --- | --- | --- | --- | --- |
| C=CC(C)(C)n1cc(C[C@H]2C(=O)N(C)[C@@H](C[C@@H](C)CO)C(=O)N[C@@H](C)C(=O)N[C@@H]([C@H](OC)c3ccccc3)C(=O)N[C@@H](C(C)C)C(=O)N(C)[C@@H](CC(C)C)C(=O)N[C@@H]([C@H](C)C=C(C)C)C(=O)N2C)c2ccccc21 [Compound 23] (cyclo(A[Phe(βR-OMe)]V[NMeL][Ala(3R-Me,3-isobutenyl)][X9][NMeLeu(5-OH,4R)])) | 57 | 57.093 | 1E-2 1E-1 1/s | 0.0121 ± 0.0003 | 0.0119 µM and 0.0123 µM | 5.6 10-6 cm s-1 | 7.3 10-6 cm s-1 | 3 | 15.001 | 12.924 |  |  |  |  |  |  |  | Caco-2 Efflux ratio (Caco-2 monolayers; Caco-2): 1.9; Permeability Correlation Ratio (Caco-2 monolayers; Caco-2): 1.57; Hepatocyte Mice [3]: 15 %Qh; Hepatocyte Human [4]: 13 %Qh |
| COC(c1ccccc1)C1NC(=O)C(C)NC(=O)C(CC(C)CO)N(C)C(=O)C(Cc2cn(CCCCn3cc(CC4NC(=O)C(C(C)C)NC(=O)C(CC(C)C)N(C)C(=O)C(C(C)C)NC(=O)C(C(OC)c5ccccc5)NC(=O)C(C)NC(=O)C(CC(C)CO)N(C)C4=O)c4ccccc43)c3ccccc23)NC(=O)C(C(C)C)NC(=O)C(CC(C)C)N(C)C(=O)C(C(C)C)NC1=O (centres unmarked) [Compound 16] |  |  |  |  |  |  |  |  |  |  | 10.7 | 6.5 µM and 7.6 µM and 7.9 µM and 5.9 µM | 7 | 0.0005 ± 0.0002 | 0.000328 µM and 0.000587 µM | 1.3 10-6 cm s-1 |  | CACO permeability PEAB (Caco-2 monolayers; apical to basolateral): <0.0000014 cm/sec; CACO permeability PEBA (Caco-2 monolayers; basolateral to apical): <0.0000011 cm/sec |
| CO[C@H](c1ccccc1)[C@@H]1NC(=O)[C@H](C)NC(=O)[C@H](C[C@@H](C)CO)N(C)C(=O)[C@H](Cc2cn(C/C=C/Cn3cc(C[C@H]4C(=O)N(C)[C@@H](C[C@@H](C)CO)C(=O)N[C@@H](C)C(=O)N[C@@H]([C@H](OC)c5ccccc5)C(=O)N[C@@H](C(C)C)C(=O)N(C)[C@@H](CC(C)C)C(=O)N[C@@H](C(C)C)C(=O)N4C)c4ccccc43)c3ccccc23)N(C)C(=O)[C@H](C(C)C)NC(=O)[C@H](CC(C)C)N(C)C(=O)[C@H](C(C)C)NC1=O [Compound 28] (I: cyclo(A[Phe(βR-OMe)]V[NMeL]V[X10][NMeLeu(5-OH,4R)]) / II: cyclo(A[Phe(βR-OMe)]V[NMeL]V[X10][NMeLeu(5-OH,4R)]); staple (E) I:6-II:6) | 6 | 6.357 | 1E-3 1E-3 1/s | 0.0018 ± 0.0001 | 0.00173 µM and 0.00192 µM | 0.66 10-6 cm s-1 | < 0.4 10-6 cm s-1 | 0.4 | 15.001 | 12.386 |  |  |  |  |  |  | 15 | koff ClpC1-NTD Mean ± SD [2]: 0.001 ± 6e-05 s⁻¹; CACO permeability PEBA (Caco-2 monolayers; Caco-2): <0.00000039 cm/sec; Caco-2 permeability P (A-B) (Caco-2 monolayers; Caco-2): 0.9 10-6 cm s-1 |
| CO[C@H](c1ccccc1)[C@@H]1NC(=O)[C@H](C)NC(=O)[C@H](C[C@@H](C)CO)N(C)C(=O)[C@H](Cc2cn(C)c3ccccc23)N(C)C(=O)[C@H](Cc2cn(CCOCCOCCn3cc(C[C@@H]4NC(=O)[C@H](CC(C)C)N(C)C(=O)[C@H](C(C)C)NC(=O)[C@H]([C@H](OC)c5ccccc5)NC(=O)[C@H](C)NC(=O)[C@H](C[C@@H](C)CO)N(C)C(=O)[C@H](Cc5cn(C)c6ccccc56)N(C)C4=O)nn3)nn2)NC(=O)[C@H](CC(C)C)N(C)C(=O)[C@H](C(C)C)NC1=O [Compound 21] |  |  |  |  |  |  |  |  |  |  | 8.6 | 4.5 µM and 6.1 µM and 6.8 µM and 4.7 µM | 5.5 | 0.0036 ± 0.0009 | 0.00419 µM and 0.00293 µM | 0.4 10-6 cm s-1 | 15 | 1-Dmax, single measurements ([5]; Measurement 1-4): 91.1% and 78.4%; 1-Dmax (percent substrate remaining at maximal degradation) ([5]; Measurement 1-4, read-out: 1-Dmax, single measurements): 82.9%; DC50 ([5]; Measurement 1-4, read-out: DC50, single measurements): 9.5 µM and 7.3 µM and 9 µM; 1-Dmax (percent substrate remaining at maximal degradation) [5, 13]: 84%; Hepatocyte Rat ([1]; clearance in hepatocytes): 6 %Qh; 1-Dmax, single measurements ([6]; Measurement 1-6): 92.1% and 86.2% and 93.5%; 1-Dmax (percent substrate remaining at maximal degradation) ([6]; Measurement 1-6, read-out: 1-Dmax, single measurements): 95.3%; 1-Dmax (percent substrate remaining at maximal degradation) [6, 13]: 92%; koff ClpC1-NTD ([2]; SPR, single independent measurements): 0.005 s⁻¹; koff ([2]; SPR, single independent measurements, read-out: koff ClpC1-NTD): 0.01 s⁻¹; Papp A→B (in vitro; Caco-2, CACO permeability PEAB): < 0.49 ×10⁻⁶ cm/s; Papp B→A (in vitro; Caco-2, CACO permeability PEBA): < 0.29 ×10⁻⁶ cm/s; Papp A→B (in vitro; Caco-2, Caco-2 permeability P (A-B)): < 0.5 ×10⁻⁶ cm/s; Papp B→A (in vitro; Caco-2, Caco-2 permeability P (B-A)): < 0.3 ×10⁻⁶ cm/s; Permeability Correlation P (A-B) (Caco-2 monolayers; influence of Trp-Nα methylation on P(A-B), matched pair, listed under the methylated partner): 0.3; Permeability Correlation Ratio (Caco-2 monolayers; influence of Trp-Nα methylation on efflux ratio, matched pair, listed under the methylated partner): 4.33 |
